The source of these data is paper PMC4971050 (Forensic Toxicology, 2016).

Usually EC50 stands for the concentration giving half of the maximal effect.

The target of one assay is human CB1 receptor (Homo sapiens, UniProt P21554). Kind of assay: FLIPR membrane potential assay. Conditions: for EC50: membrane potential; for hCB1 Max ± SEM (% CP 55,940): maximum drug effect as percentage of maximally effective (1 µM) CP 55,940; for CB1 selectivity: ratio of CB2 EC50 to CB1 EC50. It counts as cell-based.
human CB1 receptor, sequence (P21554 whole entry): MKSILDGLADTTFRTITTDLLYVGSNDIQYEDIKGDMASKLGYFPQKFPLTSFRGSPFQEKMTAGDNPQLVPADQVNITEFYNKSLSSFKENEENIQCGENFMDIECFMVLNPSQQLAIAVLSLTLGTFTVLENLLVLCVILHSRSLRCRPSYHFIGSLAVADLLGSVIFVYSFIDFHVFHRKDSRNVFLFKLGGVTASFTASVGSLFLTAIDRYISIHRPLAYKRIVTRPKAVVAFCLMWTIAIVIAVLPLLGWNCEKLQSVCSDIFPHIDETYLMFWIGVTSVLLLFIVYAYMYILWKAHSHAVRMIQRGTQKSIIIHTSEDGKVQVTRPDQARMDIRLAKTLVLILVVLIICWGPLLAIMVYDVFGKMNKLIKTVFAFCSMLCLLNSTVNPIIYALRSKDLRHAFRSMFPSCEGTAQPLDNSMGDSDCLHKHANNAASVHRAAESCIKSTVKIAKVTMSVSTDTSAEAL
In another assay the target is human CB2 receptor (Homo sapiens, UniProt P34972). The assay can be described thus: FLIPR membrane potential assay. It counts as cell-based. Conditions: for EC50: membrane potential; for hCB2 Max ± SEM (% CP 55,940): maximum drug effect as percentage of maximally effective (1 µM) CP 55,940; for hCB2 Max ± SEM (% CP 55,940) at 30 µM: effect at 30 µM, highest concentration tested, relative to 1 µM CP 55,940.
human CB2 receptor, sequence (P34972 whole entry): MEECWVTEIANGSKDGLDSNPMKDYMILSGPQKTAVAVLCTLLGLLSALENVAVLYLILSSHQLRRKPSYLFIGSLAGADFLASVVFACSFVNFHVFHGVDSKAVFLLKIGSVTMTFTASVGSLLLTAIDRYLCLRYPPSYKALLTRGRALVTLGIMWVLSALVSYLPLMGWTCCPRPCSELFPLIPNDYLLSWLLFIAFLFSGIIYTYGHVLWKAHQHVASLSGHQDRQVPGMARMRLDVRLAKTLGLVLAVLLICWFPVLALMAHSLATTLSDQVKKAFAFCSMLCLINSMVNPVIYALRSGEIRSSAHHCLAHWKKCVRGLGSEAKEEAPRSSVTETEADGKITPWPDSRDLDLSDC

The mark [1] stands for this setting: hCB2 pEC50 ± SEM, AtT-20-CB2 cells.
[2] abbreviates: hCB1 pEC50 ± SEM, AtT-20-CB1 cells.

SMILES strings stand for the structures.

Regarding `CC(C)[C@H](NC(=O)c1nn(CC2CCCCC2)c2ccccc12)C(N)=O` [compound 3, (S)-N-(1-Amino-3-methyl-1-oxobutan-2-yl)-1-(cyclohexylmethyl)-1H-indazole-3-carboxamide], the EC50 at human CB1 receptor (hCB1 EC50, AtT-20-CB1 cells) was 7.8 nM. On human CB1 receptor, the “hCB1 Max ± SEM (% CP 55,940)” value is 142 ± 18 % CP 55,940 and the CB1 selectivity amounted to 2.7. In addition, the EC50 on human CB2 receptor (setting [1]) was 20.9 nM. For the same compound, the “hCB2 Max ± SEM (% CP 55,940)” value at human CB2 receptor was 104 ± 11 % CP 55,940.
The compound `CC(C)[C@H](NC(=O)c1nn(Cc2ccc(F)cc2)c2ccccc12)C(N)=O` [compound 4, (S)-N-(1-Amino-3-methyl-1-oxobutan-2-yl)-1-(4-fluorobenzyl)-1H-indazole-3-carboxamide] had an EC50 on human CB1 receptor (setting [2]) of 2.14 nM. On human CB1 receptor, the “hCB1 Max ± SEM (% CP 55,940)” value is 151 ± 14 % CP 55,940 and the CB1 selectivity came to 3.2. On human CB2 receptor (hCB2 EC50, AtT-20-CB2 cells), this compound gave an EC50 of 6.7 nM. Moreover, the “hCB2 Max ± SEM (% CP 55,940)” value at human CB2 receptor is 98 ± 10 % CP 55,940.
Regarding `CCCCCn1nc(C(=O)N[C@H](C(N)=O)C(C)C)c2ccccc21` [compound 5, (S)-N-(1-Amino-3-methyl-1-oxobutan-2-yl)-1-pentyl-1H-indazole-3-carboxamide], the EC50 is 6.5 nM on human CB1 receptor (hCB1 EC50, AtT-20-CB1 cells); 9.9 nM on human CB2 receptor (hCB2 EC50, AtT-20-CB2 cells); 9.77 nM on human CB2 receptor (setting [1]). Besides, on human CB1 receptor, the “hCB1 Max ± SEM (% CP 55,940)” value is on record as 142 ± 15 % CP 55,940. Also, at human CB1 receptor, the CB1 selectivity stood at 1.5. Also, at human CB2 receptor, the “hCB2 Max ± SEM (% CP 55,940)” value was 102 ± 9 % CP 55,940.
Regarding `CC(C)[C@H](NC(=O)c1nn(CCCCCF)c2ccccc12)C(N)=O` [compound 6, (S)-N-(1-Amino-3-methyl-1-oxobutan-2-yl)-1-(5-fluoropentyl)-1H-indazole-3-carboxamide], the half-maximal effective concentration (EC50) was 2.82 nM at human CB1 receptor (setting [2]) and 5.6 nM at human CB2 receptor (hCB2 EC50, AtT-20-CB2 cells). Also, the “hCB1 Max ± SEM (% CP 55,940)” value on human CB1 receptor is 132 ± 9 % CP 55,940. Also, the CB1 selectivity at human CB1 receptor came out at 2.0. Further, at human CB2 receptor, the “hCB2 Max ± SEM (% CP 55,940)” value is reported as 98 ± 8 % CP 55,940.
`CC(C)[C@H](NC(=O)c1c2ccccc2nn1CC1CCCCC1)C(N)=O` [compound 7, (S)-N-(1-Amino-3-methyl-1-oxobutan-2-yl)-2-(cyclohexylmethyl)-2H-indazole-3-carboxamide]: at human CB2 receptor, the “hCB2 Max ± SEM (% CP 55,940) at 30 µM” value is 45 ± 7 (at 30 µM) % CP 55,940.
As to `CC(C)[C@H](NC(=O)c1c2ccccc2nn1Cc1ccc(F)cc1)C(N)=O` [compound 8, (S)-N-(1-Amino-3-methyl-1-oxobutan-2-yl)-2-(4-fluorobenzyl)-2H-indazole-3-carboxamide], the “hCB1 Max ± SEM (% CP 55,940) at 30 µM” value on human CB1 receptor (effect at 30 µM, highest concentration tested, relative to 1 µM CP 55,940) was 61 ± 12 (at 30 µM) % CP 55,940. Besides, at human CB2 receptor, the “hCB2 Max ± SEM (% CP 55,940) at 30 µM” value is 25 ± 4 (at 30 µM) % CP 55,940.
In the case of `CCCCCn1nc2ccccc2c1C(=O)N[C@H](C(N)=O)C(C)C` [compound 9, (S)-N-(1-Amino-3-methyl-1-oxobutan-2-yl)-2-pentyl-2H-indazole-3-carboxamide], the EC50 at human CB1 receptor (hCB1 EC50, AtT-20-CB1 cells) is 4080 nM; at human CB2 receptor (hCB2 EC50, AtT-20-CB2 cells), 4120 nM. Further, the CB1 selectivity on human CB1 receptor is listed as 1.0.
`CC(C)[C@H](NC(=O)c1c2ccccc2nn1CCCCCF)C(N)=O` [compound 10, (S)-N-(1-Amino-3-methyl-1-oxobutan-2-yl)-2-(5-fluoropentyl)-2H-indazole-3-carboxamide]: the EC50 is 1930 nM at human CB1 receptor (hCB1 EC50, AtT-20-CB1 cells); 1910 nM at human CB1 receptor (setting [2]); 2980 nM at human CB2 receptor (hCB2 EC50, AtT-20-CB2 cells). In addition, the CB1 selectivity at human CB1 receptor is 1.5. The “hCB2 Max ± SEM (% CP 55,940) at 30 µM” value on human CB2 receptor is on record as 47 ± 15 (at 30 µM) % CP 55,940.
